Assay results published in publication PMC2577671, “Evaluation of Dimebon in cellular model of Huntington's disease” (Molecular Neurodegeneration, 2008).

Target: T1, CYP450, 1A2 (Homo sapiens, UniProt P05177)
T1 construct: gene CYP1A2
Experiment: in vitro
Design: MDS Pharma Lead Profiling + CYP450 screen, enzyme assays, per cent inhibition, duplicate
Description: The activity of Dimebon against selected set of biochemical targets was performed by MDS Pharma Services . The Dimebon was provided to MDS Pharma as dry powder, dissolved in DMSO and tested in 10 μM concentrations. The standard Lead Profiling + CYP450 screen was performed according to MDS Pharma specifications with additional custom-chosen targets added to the screen as indicated. To further understand potential mechanisms responsible for clinical effects of Dimebon, we evaluated Dimebon against a set of selected biochemical targets. Dimebon evaluation was performed by MDS Pharma Services . The standard Lead Profiling + CYP450 screen was performed with additional custom-selected targets added to the screen. The results of the screen obtained at 10 μM of Dimebon are provided as Additional File 3. […] Low affinity (50–60% inhibition) interactions were also observed for CYP450, 2C19 receptor, voltage-gated L-type Ca^2+ channel, Dopamine D4.2 receptor, and Serotonin 5-HT1 receptor. […] Supplementary file 1750-1326-3-15-S3.pdf: Additional file 3 The results of Dimebon screening against a selected set of biochemical targets. The complete results obtained by MDS Pharma with a selected list of biochemical targets using 10 μM of Dimebon as a probe. The Cat numbers refer to the MDS Pharma Services assay specification. The receptors and species are listed. Dimebon was tested at 10 μM concentratio in duplicate. The % inhibition by Dimebon is shown numerically and graphically for each receptor. Significant targets (defined as % inhibition > 50%) are highlighted in yellow. Click here for file

T1 sequence (P05177 whole entry): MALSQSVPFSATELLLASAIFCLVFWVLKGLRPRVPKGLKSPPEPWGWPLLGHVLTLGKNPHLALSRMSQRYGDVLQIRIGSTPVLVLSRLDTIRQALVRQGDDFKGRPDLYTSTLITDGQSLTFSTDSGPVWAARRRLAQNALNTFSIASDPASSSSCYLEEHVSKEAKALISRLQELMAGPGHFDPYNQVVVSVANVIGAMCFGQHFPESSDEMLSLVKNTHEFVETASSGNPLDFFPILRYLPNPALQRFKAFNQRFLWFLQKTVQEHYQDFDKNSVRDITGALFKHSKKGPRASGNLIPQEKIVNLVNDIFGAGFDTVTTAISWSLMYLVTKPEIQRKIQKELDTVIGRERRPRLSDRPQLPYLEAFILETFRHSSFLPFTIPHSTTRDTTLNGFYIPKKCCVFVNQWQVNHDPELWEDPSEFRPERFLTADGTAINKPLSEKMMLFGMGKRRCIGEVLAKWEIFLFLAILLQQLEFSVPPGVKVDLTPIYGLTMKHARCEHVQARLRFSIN

Question: For `Cc1ccc2c(c1)c1c(n2CCc2ccc(C)nc2)CCN(C)C1` [Dimebon, 2,3,4,5-Tetrahydro-2,8-dimethyl-5-(2-(6-methyl-3-pyridyl)ethyl)-1H-pyrido(4,3-b)indole], which inhibition at 10 µM is on record?
Answer: 5%
